Assay results from ChEMBL document CHEMBL1201862, “PubChem BioAssay data set” (2004).
Active and inactive are the calls of the source.

Tests used:
Melanocortin receptor 4 = Melanocortin receptor 4 (Homo sapiens, UniProt P32245); assay type: functional, cell-based;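 also: Cell-based assay with luminescence read-out, confirmatory dose-response testing for agonist activity of biased ligands at MC4R; human U2OS cells with tagged receptor and beta-arrestin; potency of agonists that increase receptor coupling to beta-arrestin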
[1] = target: T1, Calpain-2 catalytic subunit (Sus scrofa, UniProt P43367); test: m-calpain protease blockers, concentration series – biochemical, fluorogenic peptide substrate, dose response (AID 1420); assay type: functional
T1 sequence (P43367 whole entry): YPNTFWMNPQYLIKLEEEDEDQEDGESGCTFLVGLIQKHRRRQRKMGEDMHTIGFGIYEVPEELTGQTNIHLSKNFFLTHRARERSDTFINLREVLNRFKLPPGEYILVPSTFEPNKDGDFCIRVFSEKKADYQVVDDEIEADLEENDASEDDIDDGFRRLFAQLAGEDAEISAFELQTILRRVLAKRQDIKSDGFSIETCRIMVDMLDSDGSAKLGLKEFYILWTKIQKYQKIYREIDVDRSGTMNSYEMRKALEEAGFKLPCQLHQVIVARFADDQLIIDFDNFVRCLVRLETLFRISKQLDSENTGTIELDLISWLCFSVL

[2] = Counterscreen for antagonists of the orexin 1 receptor (OX1R; HCRTR1): Fluorescence-based cell-based high throughput dose response assay to identify antagonists of the parental CHO cell line. [Related pubchem assays (depositor defined):AID434989, AID435008, AID463079, AID485270, AID492963, AID492964, AID492965, AID493232, AID504699, AID504701]; assay type: functional
[3] = target: T2, Orexin/Hypocretin receptor type 1 (Homo sapiens, UniProt O43613); test: Fluorescence-based cell-based high throughput dose response assay for antagonists of the orexin 1 receptor (OX1R; HCRTR1). [Related pubchem assays (depositor defined):AID434989, AID435008, AID463079, AID485270, AID492963, AID492964, AID492965, AID493232, AID504717, AID504718]; assay type: functional
T2 sequence (O43613 whole entry): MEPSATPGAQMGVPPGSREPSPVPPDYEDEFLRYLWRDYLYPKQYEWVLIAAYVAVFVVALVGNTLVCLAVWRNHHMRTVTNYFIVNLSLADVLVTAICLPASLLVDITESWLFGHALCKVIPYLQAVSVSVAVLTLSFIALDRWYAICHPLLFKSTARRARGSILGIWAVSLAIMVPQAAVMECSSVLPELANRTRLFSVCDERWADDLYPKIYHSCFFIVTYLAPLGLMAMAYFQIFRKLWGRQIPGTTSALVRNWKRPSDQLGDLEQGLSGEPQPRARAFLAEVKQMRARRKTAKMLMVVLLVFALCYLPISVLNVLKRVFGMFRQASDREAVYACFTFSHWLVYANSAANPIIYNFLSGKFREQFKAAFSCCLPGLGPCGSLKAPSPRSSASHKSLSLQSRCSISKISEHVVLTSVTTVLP

CHO-K1 = test: Counterscreen for antagonists of the orexin 1 receptor (OX1R; HCRTR1): Homogeneous time resolved fluorescence (HTRF)-based cell-based dose response assay to identify antagonists of the parental CHO-K1 cell line. [Related pubchem assays (depositor defined):AID434989, AID435008, AID463079, AID485270, AID492963, AID492964, AID492965, AID493232, AID504699, AID504701]; assay type: functional; details: Cricetulus griseus;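 also: potency for inhibition of ATP-stimulated IP1 production as antagonists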
Orexin receptor type 2 [4] = target: T3, Orexin receptor type 2 (Homo sapiens, UniProt O43614); test: Counterscreen assay for antagonists of the orexin 1 receptor (OX1R; HCRTR1): Homogeneous Time Resolved Fluorescence (HTRF)-based cell-based dose response assay for antagonists of the orexin 2 receptor (OX2R; HCRTR2), run by assay provider.; assay type: functional
T3 sequence (O43614 whole entry): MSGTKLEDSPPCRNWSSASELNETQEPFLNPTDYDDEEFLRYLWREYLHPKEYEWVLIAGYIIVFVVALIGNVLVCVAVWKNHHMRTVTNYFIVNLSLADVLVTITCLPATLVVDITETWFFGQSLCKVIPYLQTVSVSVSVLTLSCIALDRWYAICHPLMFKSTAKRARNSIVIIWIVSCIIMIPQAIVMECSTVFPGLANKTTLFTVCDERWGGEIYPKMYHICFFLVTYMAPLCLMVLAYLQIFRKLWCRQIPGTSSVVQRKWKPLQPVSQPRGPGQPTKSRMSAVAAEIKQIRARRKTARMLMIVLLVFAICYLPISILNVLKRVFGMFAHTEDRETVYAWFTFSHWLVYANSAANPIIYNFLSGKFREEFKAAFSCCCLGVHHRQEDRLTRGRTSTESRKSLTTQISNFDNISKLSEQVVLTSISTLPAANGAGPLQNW

Orexin receptor type 2 [5] = target: T3, Orexin receptor type 2; test: Counterscreen assay for antagonists of the orexin 1 receptor (OX1R; HCRTR1): Fluorescence-based cell-based dose response assay for antagonists of the orexin 2 receptor (OX2R; HCRTR2), run by assay provider.; assay type: functional
[6] = target: T2, Orexin/Hypocretin receptor type 1; test: Homogeneous Time Resolved Fluorescence (HTRF)-based cell-based high throughput dose response assay for antagonists of the orexin 1 receptor (OX1R; HCRTR1). [Related pubchem assays (depositor defined):AID434989, AID435008, AID463079, AID485270, AID492963, AID492964, AID492965, AID493232, AID504717, AID504718]; assay type: functional
[7] = target: T4, Heat shock factor protein 1 (Mus musculus, UniProt P38532); test: enhancement of HSF1-driven luciferase signal – cell-based, NIH3T3, luminescence, dose retest, confirmation (AID 435004); assay type: functional;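 also: stress induced by proteasome inhibitor MG132 added 30 min after compound; luciferase reporter driven by HSF1 response element in NIH3T3 cells; actives raise luminescence as potentiators of the MG132 stress response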
T4 sequence (P38532 whole entry): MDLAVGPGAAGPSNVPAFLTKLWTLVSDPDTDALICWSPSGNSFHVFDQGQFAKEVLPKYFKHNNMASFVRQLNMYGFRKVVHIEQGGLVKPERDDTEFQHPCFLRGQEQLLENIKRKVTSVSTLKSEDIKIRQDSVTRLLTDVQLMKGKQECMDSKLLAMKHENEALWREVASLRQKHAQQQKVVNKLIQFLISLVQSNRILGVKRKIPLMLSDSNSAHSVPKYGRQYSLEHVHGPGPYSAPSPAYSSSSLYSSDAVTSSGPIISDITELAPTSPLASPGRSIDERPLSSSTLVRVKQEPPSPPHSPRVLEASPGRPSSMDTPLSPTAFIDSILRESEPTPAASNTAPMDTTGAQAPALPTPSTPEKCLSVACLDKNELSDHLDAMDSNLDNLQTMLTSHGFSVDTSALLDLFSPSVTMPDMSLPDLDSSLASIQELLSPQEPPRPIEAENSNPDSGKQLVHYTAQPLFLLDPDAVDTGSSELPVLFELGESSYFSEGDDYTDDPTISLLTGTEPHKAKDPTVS

[8] = target: Hepatocyte nuclear factor 4-alpha (Homo sapiens, UniProt P41235); assay type: functional, cell-based;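 also: biochemical luminescence-based dose-response counterscreen measuring inhibition of HNF4 dimerization, run alongside a screen for blockers of ABHD5–perilipin-5 interaction; split luciferase complementation of HNF4 fusion proteins in cell lysate measuring dimerization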
[9] = target: T5, Mitochondrial peptide methionine sulfoxide reductase (Bos taurus, UniProt P54149); test: Absorbance-based biochemical high throughput dose response assay for activators of Methionine sulfoxide reductase A (MsrA).; assay type: functional
T5 sequence (P54149 whole entry): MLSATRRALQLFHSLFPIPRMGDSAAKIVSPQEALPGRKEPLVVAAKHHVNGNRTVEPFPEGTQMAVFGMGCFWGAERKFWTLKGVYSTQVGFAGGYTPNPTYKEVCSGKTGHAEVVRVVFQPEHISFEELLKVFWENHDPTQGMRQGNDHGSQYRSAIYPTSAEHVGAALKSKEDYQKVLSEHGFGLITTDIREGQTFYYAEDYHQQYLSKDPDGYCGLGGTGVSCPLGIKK

[10] = target: T6, Polyadenylate-binding protein 1 (Homo sapiens, UniProt P11940); test: MLLE binding blockers, Cy5 peptide tracer – biochemical, fluorescence polarization, Cy5-PAM2 peptide, secondary, miRNA deadenylation inhibitor project, dose response (AID 602260); assay type: functional; details: read-out: IC50_Mean
[11] = target: T6, Polyadenylate-binding protein 1; test: MLLE domain peptide-binding blockers, IC50 – biochemical, fluorescence polarization, FITC-PAM2 peptide, dose response (AID 602259); assay type: functional; details: read-out: IC50_Mean
[12] = target: ATP-dependent molecular chaperone HSP82 (Candida albicans (strain WO-1) (Yeast), UniProt C4YTQ8); test: steroid-induced GRE reporter decrease in yeast – S. cerevisiae, luminescence, Hsp90 inhibitor project, dose response (AID 2400); assay type: functional, cell-based;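 also: beta-galactosidase luminescence from glucocorticoid response element reporter as proxy for Hsp90 function; inhibitor potency where signal loss means Hsp90 inhibition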
[13] = fluconazole-exposed Candida albicans growth modulators – fluorescence, retest, confirmation (AID 2467); assay type: functional, cell-based
[14] = target: Peroxisome proliferator-activated receptor gamma/Nuclear receptor coactivator 3 (Homo sapiens, UniProt P37231); test: TR-FRET dose response biochemical High Throughput Screening assay for agonists of the steroid receptor coactivator 3 (SRC-3) recruitment by the peroxisome proliferator-activated receptor gamma (PPAR gamma): non-selective agonists. [Related pubchem assays: 1301 (Confirmation screen.), 1048 (Primary screen.)]; assay type: functional
[15] = target: Peroxisome proliferator-activated receptor gamma/Nuclear receptor coactivator 1 (Homo sapiens, UniProt P37231); test: TR-FRET dose response biochemical High Throughput Screening assay for agonists of the steroid receptor coactivator 1 (SRC-1) recruitment by the peroxisome proliferator-activated receptor gamma (PPAR gamma): non-selective agonists. [Related pubchem assays (depositor defined):AID1300, AID1808, AID504735, AID631]; assay type: protein assay
Troponin, cardiac muscle = Troponin, cardiac muscle (Homo sapiens, UniProt P19429+P45379+P63316); test: Fluorescence-based biochemical high throughput dose response assay for activators of the calcium sensitivity of cardiac Regulated Thin Filaments (RTF). [Related pubchem assays (depositor defined):AID493008, AID493018, AID504382, AID504383]; assay type: protein-complex assay
[16] = target: Peroxisome proliferator-activated receptor gamma/Nuclear receptor coactivator 2 (Homo sapiens, UniProt P37231); test: TR-FRET dose response biochemical High Throughput Screening assay for agonists of the steroid receptor coactivator 2 (SRC-2) recruitment by the peroxisome proliferator-activated receptor gamma (PPAR gamma): non-selective agonists. [Related pubchem assays: 1297, 1032 ]; assay type: functional
[17] = NIH-3T3 fibroblast cytotoxicity, dose response, cytotoxicity control, cell-based, fluorescence, Alamar Blue, secondary assay (AID 2327); assay type: functional;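 also: NIH-3T3 mouse fibroblasts cultured with fluconazole at 8 µg/mL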
[18] = target: T7, Serine/threonine-protein phosphatase (Candida dubliniensis (strain CD36 / CBS 7987 / NCPF 3949 / NRRLY-17841) (Yeast), UniProt B9W6M3); test: blockers of CaCl2-induced CDRE-lacZ signaling – S. cerevisiae, luminescence, secondary, dose response (AID 2388); assay type: functional, cell-based;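 also: yeast reporter cells carrying a calcineurin-responsive lacZ construct stimulated with calcium chloride; luminescent beta-galactosidase reporter signal in whole cells rather than isolated phosphatase activity; potency for inhibition where a drop in reporter signal means calcineurin blockade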
T7 sequence (B9W6M3 whole entry): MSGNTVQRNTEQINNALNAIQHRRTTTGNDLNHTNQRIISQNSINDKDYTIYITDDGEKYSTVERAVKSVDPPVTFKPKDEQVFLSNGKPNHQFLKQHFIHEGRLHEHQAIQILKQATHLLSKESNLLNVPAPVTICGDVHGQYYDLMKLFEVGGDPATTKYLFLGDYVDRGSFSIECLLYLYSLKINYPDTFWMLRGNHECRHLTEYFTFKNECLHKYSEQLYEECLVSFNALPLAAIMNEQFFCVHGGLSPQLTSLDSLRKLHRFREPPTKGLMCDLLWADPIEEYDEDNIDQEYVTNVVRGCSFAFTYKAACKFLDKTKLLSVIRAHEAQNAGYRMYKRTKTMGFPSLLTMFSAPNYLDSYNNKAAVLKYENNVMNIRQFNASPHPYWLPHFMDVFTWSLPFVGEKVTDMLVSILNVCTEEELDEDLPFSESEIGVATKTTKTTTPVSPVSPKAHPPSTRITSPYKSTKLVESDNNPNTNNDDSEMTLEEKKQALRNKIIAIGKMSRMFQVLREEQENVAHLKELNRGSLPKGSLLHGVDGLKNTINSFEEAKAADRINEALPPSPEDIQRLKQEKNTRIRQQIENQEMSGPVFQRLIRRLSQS

[19] = target: Ras and Rab interactor 1/Tyrosine-protein kinase ABL1 (Homo sapiens, UniProt P00519+Q13671); assay type: functional;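 also: biochemical TR-FRET dose-response test measuring inhibition of binding between Rin1 and Abl proteins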
Sequence of Ras and Rab interactor 1/Tyrosine-protein kinase ABL1 (P00519 whole entry): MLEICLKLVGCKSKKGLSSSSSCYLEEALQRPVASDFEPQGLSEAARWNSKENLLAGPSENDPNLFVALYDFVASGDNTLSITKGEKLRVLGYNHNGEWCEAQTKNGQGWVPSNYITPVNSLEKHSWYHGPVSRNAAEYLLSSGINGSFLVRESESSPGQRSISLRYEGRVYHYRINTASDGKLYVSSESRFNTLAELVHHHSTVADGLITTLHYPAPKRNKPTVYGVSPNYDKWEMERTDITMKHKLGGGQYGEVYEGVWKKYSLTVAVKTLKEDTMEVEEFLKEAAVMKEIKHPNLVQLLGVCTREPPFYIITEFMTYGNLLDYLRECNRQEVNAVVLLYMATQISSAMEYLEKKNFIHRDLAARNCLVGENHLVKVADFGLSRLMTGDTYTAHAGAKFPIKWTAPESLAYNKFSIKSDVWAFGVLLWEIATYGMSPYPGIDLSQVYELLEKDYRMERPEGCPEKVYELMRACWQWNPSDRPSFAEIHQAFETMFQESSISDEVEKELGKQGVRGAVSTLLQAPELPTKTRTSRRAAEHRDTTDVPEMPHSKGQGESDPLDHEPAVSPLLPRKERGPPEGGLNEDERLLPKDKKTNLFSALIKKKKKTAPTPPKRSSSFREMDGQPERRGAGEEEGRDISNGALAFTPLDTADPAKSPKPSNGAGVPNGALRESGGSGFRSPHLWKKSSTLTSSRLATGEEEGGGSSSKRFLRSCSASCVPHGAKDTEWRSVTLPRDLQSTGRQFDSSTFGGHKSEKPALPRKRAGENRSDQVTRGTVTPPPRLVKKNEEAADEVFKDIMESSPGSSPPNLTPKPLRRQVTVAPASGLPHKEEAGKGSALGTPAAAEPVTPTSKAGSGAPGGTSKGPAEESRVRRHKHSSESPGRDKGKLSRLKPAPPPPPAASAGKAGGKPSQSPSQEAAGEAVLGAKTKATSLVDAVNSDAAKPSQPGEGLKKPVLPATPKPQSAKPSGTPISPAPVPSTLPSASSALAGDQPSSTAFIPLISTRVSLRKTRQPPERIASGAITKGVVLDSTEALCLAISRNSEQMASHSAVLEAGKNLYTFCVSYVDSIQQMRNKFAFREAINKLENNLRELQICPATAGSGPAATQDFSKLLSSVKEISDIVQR
Sequence of Ras and Rab interactor 1/Tyrosine-protein kinase ABL1 (Q13671 whole entry): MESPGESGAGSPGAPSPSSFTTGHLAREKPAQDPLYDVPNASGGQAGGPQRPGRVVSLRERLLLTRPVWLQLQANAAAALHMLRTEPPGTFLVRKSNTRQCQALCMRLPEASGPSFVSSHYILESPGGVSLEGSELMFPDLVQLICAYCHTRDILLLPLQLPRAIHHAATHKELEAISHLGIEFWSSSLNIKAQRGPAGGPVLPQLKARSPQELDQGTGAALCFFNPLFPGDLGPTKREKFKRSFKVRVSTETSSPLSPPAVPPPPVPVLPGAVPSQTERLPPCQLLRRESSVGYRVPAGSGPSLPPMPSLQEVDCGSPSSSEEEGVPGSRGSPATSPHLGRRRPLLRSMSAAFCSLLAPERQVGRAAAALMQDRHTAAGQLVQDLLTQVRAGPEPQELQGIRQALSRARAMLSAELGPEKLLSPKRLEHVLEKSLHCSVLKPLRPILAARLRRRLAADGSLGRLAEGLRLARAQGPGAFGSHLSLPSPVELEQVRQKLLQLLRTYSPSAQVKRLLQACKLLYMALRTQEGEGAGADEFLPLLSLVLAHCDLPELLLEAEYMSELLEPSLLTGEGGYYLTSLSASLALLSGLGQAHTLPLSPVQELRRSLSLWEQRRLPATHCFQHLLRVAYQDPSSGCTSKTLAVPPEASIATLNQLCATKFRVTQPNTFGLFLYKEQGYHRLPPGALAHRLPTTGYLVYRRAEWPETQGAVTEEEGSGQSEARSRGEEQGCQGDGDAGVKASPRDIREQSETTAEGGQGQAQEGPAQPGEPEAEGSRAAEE

T6 sequence (P11940 whole entry, the tested form may be a part): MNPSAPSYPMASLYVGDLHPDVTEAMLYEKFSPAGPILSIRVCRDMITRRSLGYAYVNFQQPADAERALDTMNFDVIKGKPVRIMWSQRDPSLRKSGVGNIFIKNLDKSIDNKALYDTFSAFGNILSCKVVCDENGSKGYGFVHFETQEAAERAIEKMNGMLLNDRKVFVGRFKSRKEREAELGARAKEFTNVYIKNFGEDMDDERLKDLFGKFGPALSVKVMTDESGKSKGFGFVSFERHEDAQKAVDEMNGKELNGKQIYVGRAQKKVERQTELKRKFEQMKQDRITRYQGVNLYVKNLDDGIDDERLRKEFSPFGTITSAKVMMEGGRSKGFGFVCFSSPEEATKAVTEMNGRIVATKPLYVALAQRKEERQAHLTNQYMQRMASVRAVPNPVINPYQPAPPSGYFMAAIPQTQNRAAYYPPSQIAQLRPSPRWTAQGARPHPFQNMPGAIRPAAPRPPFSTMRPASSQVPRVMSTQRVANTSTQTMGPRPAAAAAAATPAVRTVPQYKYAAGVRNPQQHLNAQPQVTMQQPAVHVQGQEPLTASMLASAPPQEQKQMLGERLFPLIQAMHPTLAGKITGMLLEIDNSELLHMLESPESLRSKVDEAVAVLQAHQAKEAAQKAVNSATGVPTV
Sequence of Hepatocyte nuclear factor 4-alpha (P41235 whole entry, the tested form may be a part): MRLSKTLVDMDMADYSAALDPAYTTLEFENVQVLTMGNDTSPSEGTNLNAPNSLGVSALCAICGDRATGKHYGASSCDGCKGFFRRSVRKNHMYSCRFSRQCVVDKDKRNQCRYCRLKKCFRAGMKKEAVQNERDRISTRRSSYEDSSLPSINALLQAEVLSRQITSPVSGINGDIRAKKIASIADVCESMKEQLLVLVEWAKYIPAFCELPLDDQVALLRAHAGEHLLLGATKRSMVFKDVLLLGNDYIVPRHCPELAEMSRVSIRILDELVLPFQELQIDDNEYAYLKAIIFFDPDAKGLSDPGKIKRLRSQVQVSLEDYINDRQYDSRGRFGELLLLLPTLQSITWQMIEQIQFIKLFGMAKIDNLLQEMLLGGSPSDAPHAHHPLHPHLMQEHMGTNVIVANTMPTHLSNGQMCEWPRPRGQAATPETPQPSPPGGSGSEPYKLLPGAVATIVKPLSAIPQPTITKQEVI
Sequence of Melanocortin receptor 4 (P32245 whole entry): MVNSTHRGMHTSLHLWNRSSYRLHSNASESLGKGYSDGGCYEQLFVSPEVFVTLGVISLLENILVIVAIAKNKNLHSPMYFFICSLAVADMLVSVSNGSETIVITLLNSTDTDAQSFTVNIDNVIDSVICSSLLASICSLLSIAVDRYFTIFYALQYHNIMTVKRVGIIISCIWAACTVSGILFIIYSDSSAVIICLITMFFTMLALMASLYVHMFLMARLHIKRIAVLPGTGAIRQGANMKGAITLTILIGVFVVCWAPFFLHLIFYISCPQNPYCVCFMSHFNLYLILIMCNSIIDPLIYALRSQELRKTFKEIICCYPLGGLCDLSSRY
Sequence of ATP-dependent molecular chaperone HSP82 (C4YTQ8 whole entry): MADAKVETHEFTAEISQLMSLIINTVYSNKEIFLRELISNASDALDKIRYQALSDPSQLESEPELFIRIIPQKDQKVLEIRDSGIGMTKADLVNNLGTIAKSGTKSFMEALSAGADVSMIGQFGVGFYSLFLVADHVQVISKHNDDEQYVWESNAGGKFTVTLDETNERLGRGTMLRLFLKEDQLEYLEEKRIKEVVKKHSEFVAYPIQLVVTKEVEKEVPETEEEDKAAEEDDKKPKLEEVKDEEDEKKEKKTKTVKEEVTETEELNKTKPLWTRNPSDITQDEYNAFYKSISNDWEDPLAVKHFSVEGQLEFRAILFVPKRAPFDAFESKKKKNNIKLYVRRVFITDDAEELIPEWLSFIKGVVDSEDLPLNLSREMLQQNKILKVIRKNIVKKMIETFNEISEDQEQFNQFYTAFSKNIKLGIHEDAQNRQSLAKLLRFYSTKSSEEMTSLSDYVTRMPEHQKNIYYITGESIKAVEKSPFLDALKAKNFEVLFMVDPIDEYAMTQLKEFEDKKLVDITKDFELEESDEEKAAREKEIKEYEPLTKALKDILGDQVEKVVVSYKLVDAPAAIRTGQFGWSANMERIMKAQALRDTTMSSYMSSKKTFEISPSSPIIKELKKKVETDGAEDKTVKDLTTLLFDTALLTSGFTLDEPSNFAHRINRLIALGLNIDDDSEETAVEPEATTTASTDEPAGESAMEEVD

COc1cc(NS(=O)(=O)c2ccc(NC(=S)NC(=O)c3sc4ccccc4c3Cl)cc2)ncn1
EC50 (Melanocortin receptor 4): > 89.2 µM (inactive) | IC50 [1]: 11.4 µM (not active)

Cc1cc(Br)cc2c1NC(=O)C2(c1c(C)n(C)n(-c2ccccc2)c1=O)c1c(C)n(C)n(-c2ccccc2)c1=O
IC50 [2]: > 49.8 µM (inactive) | IC50 [3]: 6.52 µM (active) | IC50 (CHO-K1): > 66.2 µM (inactive) | IC50 (Orexin receptor type 2 [4]): 0.99 µM (active) | IC50 (Orexin receptor type 2 [5]): > 88.8 µM (inactive) | IC50 [6]: 1.28 µM (active)

CC(=O)Cc1cc(O)c2ccccc2c1OC(=O)c1ccccc1
EC50 [7]: > 260 µM (inactive) | IC50 [8]: 14.6 µM (inactive)

O=c1[nH]c(=S)[nH]cc1Oc1ccc(Cl)cc1Cl
EC50 [9]: > 104 µM (inactive) | IC50 [10]: > 66 µM (inactive) | IC50 [11]: > 66 µM (inactive)

O=C(Cn1c(=O)n(Cc2ccco2)c(=O)c2c3c(sc21)CCCC3)Nc1ccccc1
IC50 [8]: 22.2 µM (inactive)

Cc1c(O)c2c3c(cccc3c1O)C(=O)N(c1ccccc1)C2=O
EC50 [12]: 82.8 µM (active) | EC50 [13]: 0.492 µM (active) | EC50 [14]: > 79.4 µM (not active) | EC50 [15]: > 79.4 µM (inactive) | EC50 (Troponin, cardiac muscle): 2.9 µM (active) | EC50 [16]: > 79.4 µM (not active) | EC50 [17]: > 150 µM (inactive) | EC50 [18]: > 180 µM (inactive)

Cc1nc2c(-c3ccccc3)c(C)nn2c(N)c1-c1ccccc1
IC50 [2]: 49 µM (inactive) | IC50 [3]: 13.3 µM (inactive) | IC50 (CHO-K1): > 66.2 µM (inactive) | IC50 (Orexin receptor type 2 [4]): > 50 µM (inactive) | IC50 (Orexin receptor type 2 [5]): 24.9 µM (inactive) | IC50 [6]: 5.34 µM (active)

O=C1C(Cl)=C(NCc2ccco2)C(=O)c2ccccc21
EC50 [9]: > 104 µM (inactive)

CN(CCc1ccccc1)C(=O)c1ccc(NC(=O)Cc2ccc(NC(=O)C3CCN(C(=O)C4CCCCC4)CC3)cc2)cc1
IC50 [19]: 11.2 µM (inactive)

Cn1c(N)c(C(=O)N/N=C/c2ccccc2)sc1=S
IC50 [2]: > 49.7 µM (inactive) | IC50 [3]: 2.75 µM (active) | IC50 (CHO-K1): > 66.2 µM (inactive) | IC50 (Orexin receptor type 2 [4]): > 50 µM (inactive) | IC50 (Orexin receptor type 2 [5]): > 88.8 µM (inactive) | IC50 [6]: 1.59 µM (active)
